Assay [1] has as its target Fibroblast growth factor receptor 2 (Homo sapiens) (UniProt P21802). As to the kind of experiment: Selectivity interaction (Kinase panel (Z-LYTE Assay)) EUB0001632a FGFR2. The settings on record: at 10 µM.
Assay [2] deals with T1, Serine/threonine-protein kinase STK11 (Homo sapiens) (UniProt Q15831).
T1 sequence (whole entry): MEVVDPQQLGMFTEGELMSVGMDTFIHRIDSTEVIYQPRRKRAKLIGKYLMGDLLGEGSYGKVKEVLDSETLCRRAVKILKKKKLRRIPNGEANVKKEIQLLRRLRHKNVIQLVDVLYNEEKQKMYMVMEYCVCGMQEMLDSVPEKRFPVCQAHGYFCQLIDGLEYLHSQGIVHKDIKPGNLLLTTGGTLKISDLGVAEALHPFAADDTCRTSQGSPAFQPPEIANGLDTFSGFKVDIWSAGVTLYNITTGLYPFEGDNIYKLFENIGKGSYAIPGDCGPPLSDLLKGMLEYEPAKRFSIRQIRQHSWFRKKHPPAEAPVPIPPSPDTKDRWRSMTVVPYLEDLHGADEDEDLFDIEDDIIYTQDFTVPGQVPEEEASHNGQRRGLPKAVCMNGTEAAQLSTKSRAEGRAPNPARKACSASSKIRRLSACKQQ
The assay can be described thus: Selectivity interaction (Kinase panel (KiNativ target engagement assay in Jurkat cells)) EUB0001635a STK11. The format is cell-based. The settings on record: Selectivity number of off-targets 0.0, Selectivity number of targets 233.0, Source Knowledge https://www.sciencedirect.com/science/article/pii/S2451945619300674?via%3Dihub, at 1 µM.

Assay [3] addresses T2, Ephrin type-A receptor 1 (Homo sapiens) (UniProt P21709).
T2 sequence (whole entry): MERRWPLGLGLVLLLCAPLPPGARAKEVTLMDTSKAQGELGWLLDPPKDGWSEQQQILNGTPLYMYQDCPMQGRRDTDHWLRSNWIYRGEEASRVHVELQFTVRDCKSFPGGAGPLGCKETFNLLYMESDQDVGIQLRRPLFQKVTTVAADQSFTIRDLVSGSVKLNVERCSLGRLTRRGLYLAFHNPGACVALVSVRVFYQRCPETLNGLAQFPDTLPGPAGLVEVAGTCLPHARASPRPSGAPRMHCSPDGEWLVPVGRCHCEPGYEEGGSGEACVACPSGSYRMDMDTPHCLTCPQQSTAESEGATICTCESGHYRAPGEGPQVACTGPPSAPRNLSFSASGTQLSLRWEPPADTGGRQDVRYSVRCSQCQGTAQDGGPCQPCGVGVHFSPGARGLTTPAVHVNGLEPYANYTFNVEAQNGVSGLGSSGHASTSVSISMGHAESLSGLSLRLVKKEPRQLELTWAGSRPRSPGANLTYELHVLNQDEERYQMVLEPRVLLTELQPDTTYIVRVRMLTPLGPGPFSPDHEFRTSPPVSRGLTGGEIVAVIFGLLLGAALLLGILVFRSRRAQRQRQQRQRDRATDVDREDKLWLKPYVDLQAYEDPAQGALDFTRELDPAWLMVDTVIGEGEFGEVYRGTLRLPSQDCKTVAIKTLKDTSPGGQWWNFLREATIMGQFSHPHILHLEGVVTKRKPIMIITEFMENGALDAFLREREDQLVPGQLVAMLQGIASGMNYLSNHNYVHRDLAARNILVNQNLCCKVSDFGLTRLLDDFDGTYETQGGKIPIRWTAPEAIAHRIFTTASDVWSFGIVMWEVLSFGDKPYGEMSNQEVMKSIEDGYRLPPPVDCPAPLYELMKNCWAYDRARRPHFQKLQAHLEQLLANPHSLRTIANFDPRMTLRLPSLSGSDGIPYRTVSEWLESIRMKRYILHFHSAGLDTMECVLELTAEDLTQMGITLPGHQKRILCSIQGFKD
The assay can be described thus: Selectivity interaction (Ambit KINOMEscan and KiNATiv profiling in Jurkat cells) EUB0000090b EPHA1. It counts as cell-based. Conditions: at 1 µM.

The target of assay [4] is T3, Vascular endothelial growth factor receptor 2 (Homo sapiens, UniProt P35968). As to the kind of experiment: Selectivity interaction (KinomeScan (DiscoverX)) EUB0000607a KDR. Conditions: at 10 µM.
For assay [5], the system named is Proto-oncogene tyrosine-protein kinase receptor Ret (Homo sapiens), P07949 [M918T]. As to the kind of experiment: (§1) Selectivity interaction (KinomeScan (DiscoverX)) EUB0000666a RET. Conditions: at 10 µM.
The target in assay [6] is Proto-oncogene tyrosine-protein kinase receptor Ret (Homo sapiens, UniProt P07949). Described as §1. Conditions: at 10 µM.
Assay [7] relates to Proto-oncogene tyrosine-protein kinase receptor Ret (Homo sapiens), P07949 [V804L]. Described as §1. The settings on record: at 10 µM.
In assay [8] the test system is Proto-oncogene tyrosine-protein kinase receptor Ret (Homo sapiens), P07949 [V804M]. The assay is described as §1. The settings on record: at 10 µM.
For assay [9], the target named is Serine/threonine-protein kinase 26 (Homo sapiens, UniProt Q9P289). The assay can be described thus: Selectivity interaction (KinomeScan (DiscoverX)) EUB0000655a STK26. Conditions: at 10 µM.
Assay [10] concerns the target Death-associated protein kinase 2 (Homo sapiens) (UniProt Q9UIK4). The assay can be described thus: Selectivity interaction (KinomeScan (DiscoverX)) EUB0001079a DAPK2. Conditions: at 1 µM.
The target of assay [11] is Calcium/calmodulin-dependent protein kinase type II subunit delta (Homo sapiens) (UniProt Q13557). As to the kind of experiment: Selectivity interaction (ActivX KiNativ screen (ex vivo kinase selectivity in human PBMCs)) EUB0001619a CAMK2D. It counts as cell-based. The settings on record: PBMC, at 1 µM.
In assay [12] the target is Calcium/calmodulin-dependent protein kinase type II subunit gamma (Homo sapiens) (UniProt Q13555). The assay can be described thus: Selectivity interaction (ActivX KiNativ screen (ex vivo kinase selectivity in human PBMCs)) EUB0001619a CAMK2G. The settings on record: PBMC, at 1 µM. It counts as cell-based.
Assay [13] addresses Mitogen-activated protein kinase 10 (Homo sapiens, UniProt P53779). As to the kind of experiment: Selectivity interaction (ActivX KiNativ screen (ex vivo kinase selectivity in human PBMCs)) EUB0001619a MAPK10. It counts as cell-based. Conditions: PBMC, at 1 µM.
The target of assay [14] is Ribosomal protein S6 kinase alpha-1 (Homo sapiens, UniProt Q15418). The assay can be described thus: Selectivity interaction (ActivX KiNativ screen (kinase selectivity in THP-1 cell lysates)) EUB0000639a RPS6KA1. The format is subcellular. The settings on record: lysate, at 5 µM.
Another assay addresses Aurora kinase B (Homo sapiens, UniProt Q96GD4). Conditions: at 10 µM.
The target in assay [15] is T3, Vascular endothelial growth factor receptor 2. As to the kind of experiment: Selectivity interaction (KinomeScan (DiscoverX)) EUB0000045b KDR.
Assay [16] concerns the target Activin receptor type-2B (Homo sapiens) (UniProt Q13705). The assay can be described thus: Selectivity interaction (KinomeScan (DiscoverX)) EUB0000618a ACVR2B. Conditions: at 10 µM.

T3 sequence (P35968 whole entry): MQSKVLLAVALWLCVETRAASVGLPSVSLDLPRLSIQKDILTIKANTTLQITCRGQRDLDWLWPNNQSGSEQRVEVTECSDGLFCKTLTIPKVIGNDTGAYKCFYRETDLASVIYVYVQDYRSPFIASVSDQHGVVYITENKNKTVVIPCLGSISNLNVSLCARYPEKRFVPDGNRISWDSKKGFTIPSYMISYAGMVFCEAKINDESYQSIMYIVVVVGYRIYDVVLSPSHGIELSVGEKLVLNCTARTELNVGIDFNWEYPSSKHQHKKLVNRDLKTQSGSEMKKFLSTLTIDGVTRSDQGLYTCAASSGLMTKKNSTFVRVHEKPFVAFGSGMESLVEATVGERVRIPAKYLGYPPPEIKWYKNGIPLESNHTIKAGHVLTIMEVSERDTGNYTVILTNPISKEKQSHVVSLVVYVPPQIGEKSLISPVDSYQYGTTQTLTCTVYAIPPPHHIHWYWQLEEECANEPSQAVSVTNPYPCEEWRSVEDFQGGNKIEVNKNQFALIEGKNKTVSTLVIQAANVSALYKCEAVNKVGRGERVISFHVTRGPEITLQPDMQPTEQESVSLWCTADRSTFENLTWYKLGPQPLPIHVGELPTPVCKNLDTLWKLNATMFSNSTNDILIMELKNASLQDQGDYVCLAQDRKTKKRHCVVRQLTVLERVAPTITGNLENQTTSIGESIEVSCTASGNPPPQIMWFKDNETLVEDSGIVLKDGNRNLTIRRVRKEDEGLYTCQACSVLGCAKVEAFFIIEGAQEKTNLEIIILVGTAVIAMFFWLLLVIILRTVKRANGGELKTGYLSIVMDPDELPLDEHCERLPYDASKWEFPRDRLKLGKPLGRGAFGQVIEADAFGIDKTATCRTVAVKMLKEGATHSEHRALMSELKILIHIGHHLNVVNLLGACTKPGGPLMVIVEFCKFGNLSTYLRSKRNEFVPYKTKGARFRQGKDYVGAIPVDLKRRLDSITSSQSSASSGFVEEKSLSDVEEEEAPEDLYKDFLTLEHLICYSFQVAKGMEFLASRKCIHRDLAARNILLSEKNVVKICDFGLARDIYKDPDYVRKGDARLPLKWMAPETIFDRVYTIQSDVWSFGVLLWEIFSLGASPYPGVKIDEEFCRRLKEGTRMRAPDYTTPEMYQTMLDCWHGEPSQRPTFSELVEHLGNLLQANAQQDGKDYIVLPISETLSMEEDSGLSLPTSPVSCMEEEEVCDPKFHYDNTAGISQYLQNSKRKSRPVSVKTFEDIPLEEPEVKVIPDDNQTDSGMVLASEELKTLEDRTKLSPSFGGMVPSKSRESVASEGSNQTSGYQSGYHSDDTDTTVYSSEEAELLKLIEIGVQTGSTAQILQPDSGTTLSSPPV
Chain of Ribosomal protein S6 kinase alpha-1 (Q15418 whole entry): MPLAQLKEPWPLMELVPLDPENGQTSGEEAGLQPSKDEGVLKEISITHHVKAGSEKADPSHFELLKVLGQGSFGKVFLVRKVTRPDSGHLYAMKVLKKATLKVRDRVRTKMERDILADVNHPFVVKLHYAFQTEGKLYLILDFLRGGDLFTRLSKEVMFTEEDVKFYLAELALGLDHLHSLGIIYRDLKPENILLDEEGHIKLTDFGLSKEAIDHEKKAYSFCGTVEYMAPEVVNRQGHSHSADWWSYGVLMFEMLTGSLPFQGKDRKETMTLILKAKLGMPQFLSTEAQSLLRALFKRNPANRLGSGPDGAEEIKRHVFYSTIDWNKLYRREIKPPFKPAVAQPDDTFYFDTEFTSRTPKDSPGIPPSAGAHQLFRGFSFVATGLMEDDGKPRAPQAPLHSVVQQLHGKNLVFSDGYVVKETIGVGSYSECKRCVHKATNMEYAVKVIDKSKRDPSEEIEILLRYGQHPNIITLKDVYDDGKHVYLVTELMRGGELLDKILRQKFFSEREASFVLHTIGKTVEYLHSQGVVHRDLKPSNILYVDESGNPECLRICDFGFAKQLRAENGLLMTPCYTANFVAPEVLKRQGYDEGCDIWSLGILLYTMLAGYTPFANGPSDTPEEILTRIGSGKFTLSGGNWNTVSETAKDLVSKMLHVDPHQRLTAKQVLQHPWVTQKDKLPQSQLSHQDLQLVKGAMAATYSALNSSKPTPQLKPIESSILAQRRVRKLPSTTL
Chain of Proto-oncogene tyrosine-protein kinase receptor Ret (Homo sapiens), P07949 [M918T] (P07949 whole entry M918T): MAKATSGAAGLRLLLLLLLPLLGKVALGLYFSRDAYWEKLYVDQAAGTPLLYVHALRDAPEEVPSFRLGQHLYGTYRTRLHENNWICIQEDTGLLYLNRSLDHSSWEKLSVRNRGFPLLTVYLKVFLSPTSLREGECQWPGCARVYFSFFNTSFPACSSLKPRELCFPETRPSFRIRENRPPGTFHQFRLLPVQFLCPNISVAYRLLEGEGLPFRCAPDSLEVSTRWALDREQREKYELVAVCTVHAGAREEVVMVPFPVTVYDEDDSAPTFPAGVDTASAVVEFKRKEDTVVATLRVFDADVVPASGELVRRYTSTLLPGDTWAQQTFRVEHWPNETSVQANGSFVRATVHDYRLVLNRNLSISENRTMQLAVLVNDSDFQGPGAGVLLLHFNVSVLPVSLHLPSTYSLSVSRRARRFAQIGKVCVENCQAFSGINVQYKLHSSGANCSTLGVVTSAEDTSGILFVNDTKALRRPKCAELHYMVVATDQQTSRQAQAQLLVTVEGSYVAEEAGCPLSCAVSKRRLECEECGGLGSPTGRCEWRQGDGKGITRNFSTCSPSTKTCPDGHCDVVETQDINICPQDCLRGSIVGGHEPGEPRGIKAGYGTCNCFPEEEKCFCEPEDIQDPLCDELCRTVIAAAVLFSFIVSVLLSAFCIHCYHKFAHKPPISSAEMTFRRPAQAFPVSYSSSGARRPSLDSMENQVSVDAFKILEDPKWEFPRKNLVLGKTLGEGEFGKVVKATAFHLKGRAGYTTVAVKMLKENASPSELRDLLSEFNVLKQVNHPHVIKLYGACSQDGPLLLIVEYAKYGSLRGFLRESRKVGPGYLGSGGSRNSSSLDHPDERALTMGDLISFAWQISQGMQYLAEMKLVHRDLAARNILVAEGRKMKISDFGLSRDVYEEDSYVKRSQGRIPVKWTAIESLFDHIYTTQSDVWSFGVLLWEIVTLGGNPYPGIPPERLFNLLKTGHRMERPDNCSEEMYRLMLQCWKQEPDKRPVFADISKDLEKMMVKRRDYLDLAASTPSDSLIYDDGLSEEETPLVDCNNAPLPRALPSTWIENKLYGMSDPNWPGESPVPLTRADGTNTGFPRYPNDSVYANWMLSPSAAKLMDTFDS
Chain of Calcium/calmodulin-dependent protein kinase type II subunit gamma (Homo sapiens) (Q13555 whole entry): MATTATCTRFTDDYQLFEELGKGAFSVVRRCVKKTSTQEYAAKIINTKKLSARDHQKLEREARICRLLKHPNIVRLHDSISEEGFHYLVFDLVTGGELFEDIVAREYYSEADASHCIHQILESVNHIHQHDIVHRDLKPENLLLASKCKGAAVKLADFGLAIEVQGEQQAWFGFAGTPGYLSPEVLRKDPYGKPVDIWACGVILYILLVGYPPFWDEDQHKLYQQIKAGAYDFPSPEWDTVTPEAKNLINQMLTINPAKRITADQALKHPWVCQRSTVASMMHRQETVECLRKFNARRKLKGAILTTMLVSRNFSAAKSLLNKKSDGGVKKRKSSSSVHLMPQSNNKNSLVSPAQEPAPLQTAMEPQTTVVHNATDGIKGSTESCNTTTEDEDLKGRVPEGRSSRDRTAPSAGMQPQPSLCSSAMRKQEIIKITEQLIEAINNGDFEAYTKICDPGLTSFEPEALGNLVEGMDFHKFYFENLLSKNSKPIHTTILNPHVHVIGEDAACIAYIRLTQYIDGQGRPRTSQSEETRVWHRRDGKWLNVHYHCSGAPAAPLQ
Chain of Proto-oncogene tyrosine-protein kinase receptor Ret (Homo sapiens), P07949 [V804L] (P07949 whole entry V804L): as the sequence (P07949 whole entry M918T) above, with V804L, T918M counted along it

In the case of `Cn1cc(-n2cnc3c(NCc4nc5cc(Cl)c(Cl)cc5[nH]4)nc(N4CCOCC4)nc32)cn1`, in assay [1], the % of control turned out to be 17.8%.

Compound `C=CC(=O)Nc1ccc(C(=O)Nc2[nH]nc3c2CN(C(=O)N[C@H](CN(C)C)c2ccccc2)C3(C)C)cc1` yielded a % of engagement in [2] of 11.1%.

As to `CN(C)C/C=C/C(=O)Nc1ccc(C(=O)N2CCCC(Nc3ncc(Cl)c(-c4c[nH]c5ccccc45)n3)C2)cc1` (stereo not drawn), in [3], the % of control worked out at 73%.

With `CNC(=O)Nc1ccc(-c2nc(N3CC4CCC(C3)O4)c3cnn(C4CCC5(CC4)OCCO5)c3n2)cc1`, the % of control in assay [4] came to 76%.

For `O=C(NOC[C@H](O)CO)c1ccc(F)c(F)c1Nc1ccc(I)cc1F`, the % of control in assay [5] is 79%; in assay [6] it was 90%; in assay [7] it was 93%; in [8], 100%.

As for `CN(C)CCOc1ccc(-c2nc(-c3ccncc3)c(-c3ccc4c(c3)CC/C4=N\O)[nH]2)cc1`, the % of control in [9] was found to be 91%.

For `Nc1cnc(N2CCc3cc(S(=O)(=O)Nc4c(F)cc(Cl)cc4F)cc(N4CCCC4=O)c32)nc1` [TP-020n], the % of control in [10] was 91%.

For the compound `N#Cc1cccc(-c2c[nH]c3ncnc(N4CCOCC4)c23)c1`, the % of inhibition in assay [11] is 4%; in assay [12] it was -12%; in [13], 5%.

For the compound `CC[C@@H]1[C@H](F)C(=O)N[C@@H]1COc1nccc2cc(C(N)=O)c(OC)cc12` [ZIMLOVISERTIB], the % of inhibition in [14] turned out to be 0.2%.

For the compound `CCN(CC)CCCCNc1ncc2cc(-c3cc(OC)cc(OC)c3)c(NC(=O)NC(C)(C)C)nc2n1`, the % of control on Aurora kinase B stood at 100%.

As for `C=CC(=O)Nc1cc(-n2c(=O)ccc3cnc4ccc(-c5ccc(NS(C)(=O)=O)cc5)cc4c32)ccc1C`, the % of control in assay [15] (at 1 µM) came to 97%; in assay [15] (at 10 µM), 100%.

Take `O[C@H]1CC[C@H](Nc2ncc3nc(Nc4c(F)cc(F)cc4F)n([C@H]4CCOC4)c3n2)CC1`: in assay [16], the % of control turned out to be 100%.

(Values after ChEMBL document CHEMBL5465560, “Selectivity Literature for EUbOPEN Chemogenomic Library” (2024).)
